Reference: patent US12458688B2, “Epitopes” (Scancell Limited, priority 2018, dated 2025)
Where no end group is shown, it is not given here. [ ]: non-standard residue; d: D form. hCit = NC(=O)NCCCC[C@H](N)C(=O)O

Columns and labels:
HLA transgenic mice = experiment: T cell response to Hcit peptides in HLA transgenic mice (screening, ex vivo ELISpot); design: species or system mouse; details: yes/no; Hcit peptide with CpG/MPLA
Procedure: (§1) C57BL/6 mice (Charles River, UK), HLA-DR4 mice (Model #4149, Taconic, USA), HLA-A2/DR1 (HHDII/DR1, Pasteur Institute), HLA-A2.1+/+HLA-DP4+/+hCD4+/+ (HLA-HHDII/DP4) transgenic mice (EM: 02221, European Mouse Mutant Archive) described in patent WO2013/017545 A1 (EMMA repository, France) were used, aged between 8 and 12 weeks. Peptides were dissolved in PBS to 1 mg/ml and then emulsified (a series of dilutions) with CpG ODN 1826 and MPLA 6 μg/mouse of each (Invivogen, UK). Peptides (25 μg/mouse) were injected subcutaneously at the base of the tail. Mice were immunised at days 1, 7 and 14 for peptide immunisation. Spleens were removed for analysis at day 21 unless stated otherwise.
(§2) ELISpot assays were performed using murine IFNγ, IL-17 and IL-10 capture and detection reagents according to the manufacturer's instructions (Mabtech, Sweden). In brief, anti-IFNγ, IL-17 and IL-10 specific antibodies were coated onto wells of 96-well Immobilin-P plate. Synthetic peptides (at various concentrations) and 5×10^5 per well splenocytes were added to wells of the plate in quadruplicate Tumour target cells were added where relevant at 5×10^4/well in triplicate and plates incubated for 40 hrs at 37° C. After incubation, captured IFNγ, IL-10 and IL-17 were detected by biotinylated anti-IFNγ, IL-10 and IL-17 antibodies and developed with a streptavidin alkaline phosphatase and chromogenic substrate. Lipopolysaccharide (LPS; 5 μg/ml) was used as a positive control. For MHC blocking studies, anti-CD4 blocking antibody (GK1.5) or anti-CD4 blocking antibody (RPA-T4) for HHDII/DP4 mice which express human CD4 and anti-CD8 blocking antibody (2.43) from Bioxcell were used at 20 μg/ml. Spots were analysed and counted using an automated plate reader (Cellular Technologies Ltd).
(§3) Screening was performed to identify potential homocitrullinated vimentin epitopes in mice. Mice were immunised with pools of homocitrullinated peptides. […] Each pool was administered as three immunisations containing 20 μg of each peptide and CpG/MPLA as an adjuvant on day 1, 8 and 15. On day 21 the mice were culled and the immune responses to each peptide within the immunising pool were assessed by ex vivo ELISpot. Given that different mouse strains have different MHC repertoires a number of strains were used for screening. Peptide responses were assessed in transgenic strains expressing human DR4 or HHDII/DR1 in a C57BL/6 background (see methods).
(§4) Screening was performed to identify potential homocitrullinated ALDOA epitopes in transgenic HHDII/DP4 and HHDII/DR1 mice. Mice were immunised with pools of human homocitrullinated peptides. […] Each pool was administered as three immunisations containing 20 μg of each peptide and CpG/MPLA as an adjuvant. After 21 days the mice were culled and the immune responses to each peptide within the immunising pool were assessed by ex vivo ELISpot in HHDII/DP4 (FIG. 4b) and HHDII/DR1 mice (FIG. 4d).
as §4, with “Using this combination of predictions, 5 CyK8 peptides containing homocitrulline were synthesised (Table 4). Screening” for “Screening”, “Cyk8” for “ALDOA”, “HHDII/DP4.” for “HHDII/DP4 and HHDII/DR1 mice.”, “10a).” for “4b) and HHDII/DR1 mice (FIG. 4d).”

HLA-DR4 mice = experiment: Ex vivo IFNγ ELISpot after peptide immunisation, HLA-DR4 mice; format: in vivo, mouse; details: for IFNγ ELISpot response: 3 immunisations with CpG/MPLA, day 21
Procedure: as §1, §2, §3

B16F1 HHDII/DR1 tumours = experiment: Tumour therapy, B16F1 HHDII/DR1 tumour in HHDII/DR1 mice; format: in vivo, mouse; details: peptide with CpG/MPLA days 4, 11, 18
Description: To determine if the epitopes that stimulate T cell responses are presented on MHC-II within the tumour environment, our homocitrullinated peptides were checked for tumour therapy in B16 tumour models. Mice were implanted with tumour cells on day 1 and then immunised with peptides and CpG/MPLA on days 4, 11 and 18.
HHDII/DR1 (FIG. 19a) or DR4 (FIG. 19b) transgenic mice were challenged with B16F1 HHDII/DR1 or B16F1 DR4 tumours respectively prior to immunisation with vimentin 116-135Hcit peptide and tumour growth and survival were monitored.
HHDII/DR1 mice were implanted with B16HHDII/DR1 tumour cells on day 1 and then immunised with Cyk8 371Hcit, 112hcit or both peptides and CpG/MPLA on days 4, 11 and 18.

HLA-HHDII/DR1 mice = experiment: Ex vivo IFNγ ELISpot after peptide immunisation, HHDII/DR1 mice; format: in vivo, mouse; details: for IFNγ ELISpot response: 3 immunisations with CpG/MPLA, day 21
Procedure: as §1, §2
as §3, with “methods). […]” for “methods).”
The five selected homocitrullinated Cyk8 peptides were also screened in HHDII/DR1 transgenic mice. […] Response to Cyk8 112Hcit peptide in the HHDII/DR1 mice was lost in the presence of CD8 blocking antibody but less effect of the CD4 blocking antibody was seen (FIG. 12b). […] Responses to homocitrullinated Cyk8 peptides show both CD4 and CD8 mediated responses.

EIN-hcit-RTEMENEFVLI-hcit-hcit-DVDE (EIN[hCit]RTEMENEFVLI[hCit][hCit]DVDE) [Cyk8 182-202 Hcit]
T cell response (HLA transgenic mice): Yes

HACTQ-hcit-FSH(N)EEIAMATVTA (HACTQ[hCit]FSHNEEIAMATVTA; not fully specified; printed as HACTQ-hcit-FSH(N)EEIAMATVTA) [Aldolase A 238-256 Hcit]
T cell response (HLA transgenic mice): yes

IGGVILFHETLYQ-hcit-ADDGRP (IGGVILFHETLYQ[hCit]ADDGRP) [Aldolase A 74-93 Hcit]
IFNγ ELISpot response (HLA-DR4 mice): No responses were seen
T cell response (HLA transgenic mice): yes

KFASFID-Hcit-VRFLEQQN-Hcit-MLE (KFASFID[hCit]VRFLEQQN[hCit]MLE) [Cyk8 101-120 Hcit]
T cell response (HLA transgenic mice): Yes

LEQQN-hcit-MLET-hcit-WSLLQQQ-hcit-T (LEQQN[hCit]MLET[hCit]WSLLQQQ[hCit]T) [Cyk8 112-131 Hcit]
anti-tumour response / survival vs control (B16F1 HHDII/DR1 tumours): Significant prevention of tumour growth
IFNγ response in presence of CD4 blocking antibody (HLA-HHDII/DR1 mice): less effect
IFNγ response in presence of CD8 blocking antibody (HLA-HHDII/DR1 mice): lost
cross reactivity of Hcit response to wt peptide (HLA-HHDII/DR1 mice): minimal cross reactivity
IFNγ ELISpot response (HLA-HHDII/DR1 mice): Significant responses
T cell response (HLA transgenic mice): Yes

LREYQELMNV-hcit-LALDIEI (LREYQELMNV[hCit]LALDIEI) [Cyk8 371-388 Hcit]
anti-tumour response / survival vs control (B16F1 HHDII/DR1 tumours): Significant prevention of tumour growth
IFNγ response in presence of CD4 blocking antibody (HLA-HHDII/DR1 mice): lost
IFNγ response in presence of CD8 blocking antibody (HLA-HHDII/DR1 mice): not with the CD8 blocking antibody
cross reactivity of Hcit response to wt peptide (HLA-HHDII/DR1 mice): minimal cross reactivity
IFNγ ELISpot response (HLA-HHDII/DR1 mice): Significant responses
T cell response (HLA transgenic mice): Yes

NYID-Hcit-VRFLEQQN-Hcit-ILLAEL (NYID[hCit]VRFLEQQN[hCit]ILLAEL) [Vimentin 116-135 Hcit]
survival (B16F1 HHDII/DR1 tumours): 50%
IFNγ response in presence of CD4 blocking antibody (HLA-DR4 mice): significantly decreased
IFNγ response in presence of CD8 blocking antibody (HLA-DR4 mice): not in the presence of the CD8 blocking antibody
cross reactivity of Hcit response to wt peptide (HLA-DR4 mice): no cross reactivity
IFNγ ELISpot response (HLA-DR4 mice): significant response
IFNγ response in presence of CD4 blocking antibody (HLA-HHDII/DR1 mice): significantly decreased
IFNγ response in presence of CD8 blocking antibody (HLA-HHDII/DR1 mice): not in the presence of the CD8 blocking antibody
cross reactivity of Hcit response to wt peptide (HLA-HHDII/DR1 mice): no cross reactivity
IFNγ ELISpot response (HLA-HHDII/DR1 mice): significant response
T cell response (HLA transgenic mice): yes

hcit-DGADFA-hcit-WRCVL-hcit-IGEH ([hCit]DGADFA[hCit]WRCVL[hCit]IGEH) [Aldolase A 140-157 Hcit]
anti-tumour response / survival vs control (B16F1 HHDII/DR1 tumours): significant increase in survival
IFNγ ELISpot response (HLA-DR4 mice): No responses were seen
cross reactivity of Hcit response to wt peptide (HLA-HHDII/DR1 mice): significantly higher
IFNγ ELISpot response (HLA-HHDII/DR1 mice): stimulated responses
T cell response (HLA transgenic mice): yes

hcit-LALDIEIATYR-hcit-LLEGEE ([hCit]LALDIEIATYR[hCit]LLEGEE) [Cyk8 381-399 Hcit]
T cell response (HLA transgenic mice): Yes
